43 compounds from patent publication US20050009840A1 (SUGEN, INC., priority 2003, published 2005) can be followed below.

The target of the test is T1, HGFR (Homo sapiens, UniProt P08581).
T1 construct: purchased Upstate 14-526
Briefly: HGFR continuous-coupled spectrophotometric assay. The class given is biochemical. The settings on record: for inhibition at 1 pM / inhibition at 1 µM: read-out: % Inhibition (percent c-MET inhibition); for inhibition at 0.05 µM: at 50 nM, Table 5, library procedure 40, read-out: % inhibition (percent c-MET inhibition); for inhibition at 1 µM: Table 8, library procedure 43.

[1] abbreviates: Table 3, column 'Ki (μM) or I (%)': cells without % sign, read-out: Ki.

Read-outs that look alike come from different tables or passages of the source.

T1 sequence (P08581 974-1390 limits assumed): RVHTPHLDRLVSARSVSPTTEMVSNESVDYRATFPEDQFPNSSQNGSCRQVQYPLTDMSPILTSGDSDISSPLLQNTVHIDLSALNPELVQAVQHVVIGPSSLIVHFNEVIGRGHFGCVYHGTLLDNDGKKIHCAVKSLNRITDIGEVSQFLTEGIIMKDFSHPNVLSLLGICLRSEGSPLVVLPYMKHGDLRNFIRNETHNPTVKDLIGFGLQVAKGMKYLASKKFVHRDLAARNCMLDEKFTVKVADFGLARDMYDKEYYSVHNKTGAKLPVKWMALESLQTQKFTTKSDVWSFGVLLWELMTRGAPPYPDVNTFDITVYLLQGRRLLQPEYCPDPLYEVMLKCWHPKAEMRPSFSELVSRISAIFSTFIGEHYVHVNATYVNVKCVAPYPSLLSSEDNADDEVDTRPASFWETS

For `CCc1ccc(COCC2CCN(C(=O)c3cnc(N)c(OCc4c(Cl)cccc4Cl)c3)CC2)nc1` [Example L-344], the inhibition at 1 pM (Table 6, library procedure 41) amounted to 41%.
As for `CC(Oc1cc(-c2ccc(C(=O)NC3CCN(Cc4ccccc4)C3)cc2)cnc1N)c1c(Cl)ccc(F)c1Cl` [Example L-17], the inhibition at 0.05 µM came to 76%.
As to `CCN1CCN(C(=O)c2ccc(-c3cnc(N)c(OC(C)c4c(F)ccc(F)c4Cl)c3)cc2)CC1` (stereo not shown) [Example I-622, (4-{6-Amino-5-[1-(2-chloro-3,6-difluoro-phenyl)-ethoxy]-pyridin-3-yl}-phenyl)-(4-ethyl-piperazin-1-yl)-methanone], the Ki under setting [1] stood at 0.375 µM.
Consider `CC(=O)N[C@@H]1CCN(C(=O)c2ccc(-c3cnc(N)c(OC(C)c4c(Cl)ccc(F)c4Cl)c3)cc2)C1` (stereo partly drawn) [Example L-107], for which the inhibition at 0.05 µM was determined as 87%.
As for `CC(Oc1cc(-c2ccc(CN3C[C@@H](C)N[C@@H](C)C3)cc2)cnc1N)c1c(Cl)ccc(F)c1Cl` (stereo partly shown) [Example I-549, 3-[1-(2,6-Dichloro-3-fluoro-phenyl)-ethoxy]-5-[4-(dimethyl-piperazin-1-ylmethyl)-phenyl]-pyridin-2-ylamine], the Ki under setting [1] was 0.095 µM.
Regarding `Cc1noc(C)c1-c1nc(COc2cc(-c3ccc(C(=O)N4CCC(N5CCCC5)CC4)cc3)cnc2N)no1`, the inhibition at 1 pM (Table 7, library procedure 42) worked out at 6%.
Take `Cc1cccc(CN(C)C(=O)c2ccc(-c3cnc(N)c(OC(C)c4c(Cl)ccc(F)c4Cl)c3)cc2)n1` [Example L-144]: the inhibition at 0.05 µM was 71%.
Regarding `Nc1ncc(C(=O)N2CCC(CO)CC2)cc1OCc1c(Cl)cccc1Cl` [Example L-257], the inhibition at 1 pM (Table 6, library procedure 41) came to 43%.
For the compound `C[C@@H]1CCC[C@H](C)N1CCNC(=O)c1cnc(N)c(OCc2c(Cl)cccc2Cl)c1` [Example L-270], for the setting “Table 6, library procedure 41”, the inhibition at 1 pM was 2%.
Regarding `CC(NC(=O)c1ccc(-c2cnc(N)c(OC(C)c3c(Cl)ccc(F)c3Cl)c2)cc1)c1ccc(O)cc1` [Example L-93], the inhibition at 0.05 µM came to 62%.
On to `Nc1ncc(-c2ccc(C(=O)N3CCC(N4CCCC4)CC3)cc2)cc1OCc1cccc(-c2ccnc(Br)n2)c1`, for which the inhibition at 1 pM (Table 7, library procedure 42) is 13%.
Take `Nc1ncc(-c2ccc(C(=O)N3CCC(N4CCCC4)CC3)cc2)cc1OCc1ccc(F)c(C(F)(F)F)c1`: the inhibition at 1 pM (Table 7, library procedure 42) was 13%.
For the compound `Nc1ncc(C(=O)NC2CCSC2=O)cc1OCc1c(Cl)cccc1Cl` [Example L-189], the inhibition at 1 pM (Table 6, library procedure 41) was found to be 35%.
As for `CC1CN(C(=O)c2ccc(-c3cnc(N)c(OCc4c(F)ccc(F)c4Cl)c3)cc2)CC(C)N1` (stereo not shown), the inhibition at 1 µM is 51%.
In the case of `CC(Oc1cc(C#CC(C)(C)NC(=O)NCCN2CCOCC2)cnc1N)c1c(Cl)ccc(F)c1Cl` (stereo not shown) [Example I-436, 1-(3-{6-Amino-5-[1-(2,6-dicloro-3-fluoro-phenyl)-ethoxy]-pyridin-3-yl}-1,1-dimethyl-prop-2-ynyl)-3-(2-morpholin-4-yl-ethyl)-urea], the Ki (cells prefixed Ki, read-out: Met Ki) is 1.11 µM.
On to `CC1CN(C(=O)c2ccc(-c3cnc(N)c(OCc4ccccc4OC(F)(F)F)c3)cc2)CC(C)N1` (stereo not shown), for which the inhibition at 1 µM was determined as 20%.
Consider `Cc1nc(CCNC(=O)c2cnc(N)c(OCc3c(Cl)cccc3Cl)c2)cs1` [Example L-333], for which the inhibition at 1 pM (Table 6, library procedure 41) was 23%.
`Nc1ncc(C(=O)N2CCC(O)(CN3CCCC3=O)C2)cc1OCc1c(Cl)cccc1Cl` [Example L-337]: the inhibition at 1 pM (Table 6, library procedure 41) came to 20%.
Turning to `CC1CN(C(=O)c2ccc(-c3cnc(N)c(OCc4cccc(Cl)c4Cl)c3)cc2)CC(C)N1` (stereo not shown), the inhibition at 1 µM turned out to be 40%.
Regarding `CC(Oc1cc(-c2ccc(C(=O)N(C)C)cc2)cnc1N)c1c(Cl)ccc(F)c1Cl` [Example L-125], the inhibition at 0.05 µM stood at 77%.
As for `Cc1ccc(-c2nnc(COc3cc(-c4ccc(C(=O)N5CC(C)NC(C)C5)cc4)cnc3N)o2)cc1` (stereo not shown), the inhibition at 1 µM was determined as 14%.
For the compound `CC(Oc1cc(-c2ccc(C(=O)N3CCOCC3)cc2)cnc1N)c1c(Cl)ccc(F)c1Cl` [Example L-103], the inhibition at 0.05 µM was 91%.
For the compound `Nc1ncc(C(=O)NCCc2cccc(O)c2)cc1OCc1c(Cl)cccc1Cl` [Example L-273], the inhibition at 1 pM (Table 6, library procedure 41) is 17%.
As to `Nc1ncc(-c2ccc(C(=O)N3CCC(N4CCCC4)CC3)cc2)cc1OCc1cc(F)cc(F)c1`, the inhibition at 1 pM (Table 7, library procedure 42) turned out to be 14%.
Regarding `CC(CN(C)C)NC(=O)c1cnc(N)c(OCc2c(Cl)cccc2Cl)c1` [Example L-254], the inhibition at 1 pM (Table 6, library procedure 41) was determined as 45%.
Consider `Nc1ncc(C(=O)N2CCC(Cc3cccc(CO)c3)CC2)cc1OCc1c(Cl)cccc1Cl` [Example L-316], for which the inhibition at 1 pM (Table 6, library procedure 41) was 11%.
Turning to `CCCC(CO)NC(=O)c1cnc(N)c(OCc2c(Cl)cccc2Cl)c1` [Example L-241], the inhibition at 1 pM (Table 6, library procedure 41) turned out to be 30%.
For `Nc1ncc(-c2ccc(C(=O)N3CCC(N4CCCC4)CC3)cc2)cc1OCC1=C(Cl)SNN1`, the inhibition at 1 pM (Table 7, library procedure 42) worked out at 19%.
For the compound `Nc1ncc(C(=O)NCCc2ccc(S(N)(=O)=O)cc2)cc1OCc1c(Cl)cccc1Cl` [Example L-187], the inhibition at 1 pM (Table 6, library procedure 41) worked out at 30%.
Turning to `C[C@H](Oc1cc(-c2ccc(C(=O)NC3C[C@@H]3c3ccccc3)cc2)cnc1N)c1c(Cl)ccc(F)c1Cl` (stereo partly drawn) [Example L-74], the inhibition at 0.05 µM amounted to 65%.
With `COc1ccc2sc(COc3cc(-c4ccc(C(=O)N5CCC(N6CCCC6)CC5)cc4)cnc3N)cc2c1`, the inhibition at 1 pM (Table 7, library procedure 42) came out at 13%.
For `Cc1nc(COc2cc(-c3ccc(C(=O)N4CCC(N5CCCC5)CC4)cc3)cnc2N)cs1`, the inhibition at 1 pM (Table 7, library procedure 42) amounted to 6%.
As to `CC(Oc1cc(-c2ccc(C(=O)N3CCNCC3)cc2)cnc1N)c1c(Cl)ccc(F)c1Cl` (stereo not shown) [Example I-605, (4-{6-Amino-5-[1-(2,6-dichloro-3-fluoro-phenyl)-ethoxy]-pyridin-3-yl}-phenyl)-piperazin-1-yl-methanone], under setting [1], the Ki stood at 0.0475 µM.
As for `CC(Oc1cc(-c2ccc(C(=O)N3C[C@@H](C)N[C@@H](C)C3)cc2F)cnc1N)c1c(Cl)ccc(F)c1Cl` (stereo partly shown) [Example I-552, (4-{6-Amino-5-[1-(2,6-dichloro-3-fluoro-phenyl)-ethoxy]-pyridin-3-yl}-3-fluoro-phenyl)-(dimethyl-piperazin-1-yl)-methanone], the Ki under setting [1] stood at 0.224 µM.
With `Nc1ncc(C(=O)N2CCC3(CC2)CC3C(=O)NCC2CC2)cc1OCc1c(Cl)cccc1Cl` [Example L-349], the inhibition at 1 pM (Table 6, library procedure 41) is 32%.
For the compound `COc1ccc(-c2cnc(N)c(OC(C)c3c(Cl)ccc(F)c3Cl)c2)c(OC)c1` (stereo not shown) [Example I-557, 3-[1-(2,6-Dichloro-3-fluoro-phenyl)-ethoxy]-5-(2,4-dimethoxy-phenyl)-pyridin-2-ylamine], under setting [1], the Ki worked out at 0.217 µM.
In the case of `Cc1ccn2cc(CNC(=O)c3cnc(N)c(OCc4c(Cl)cccc4Cl)c3)nc2n1` [Example L-345], the inhibition at 1 pM (Table 6, library procedure 41) amounted to 45%.
For the compound `COc1ccccc1CNC(=O)c1cnc(N)c(OCc2c(Cl)cccc2Cl)c1` [Example L-183], where the note is “Table 6, library procedure 41”, the inhibition at 1 pM amounted to 32%.
`COc1cc(CNC(=O)c2ccc(-c3cnc(N)c(OC(C)c4c(Cl)ccc(F)c4Cl)c3)cc2)cc(OC)c1` [Example L-113]: the inhibition at 0.05 µM is 57%.
On to `CC1CN(C(=O)c2ccc(-c3cnc(N)c(OCc4cccc(Oc5ccccc5)c4)c3)cc2)CC(C)N1` (stereo not shown), for which the inhibition at 1 µM amounted to 32%.
For `Nc1ncc(C(=O)NCc2ncccc2O)cc1OCc1c(Cl)cccc1Cl` [Example L-303], under “Table 6, library procedure 41”, the inhibition at 1 pM is 24%.
As for `CC(Oc1cc(-c2ccc(C(=O)NCc3ccccn3)cc2)cnc1N)c1c(Cl)ccc(F)c1Cl` [Example L-10], the inhibition at 0.05 µM was 67%.
As to `COC(=O)Nc1cc(COc2cc(-c3ccc(C(=O)N4CCC(N5CCCC5)CC4)cc3)cnc2N)on1`, where the note is “Table 7, library procedure 42”, the inhibition at 1 pM is 18%.

As a reminder, the inhibition is the drop in the measured response relative to a control, in per cent. For orientation: Ki means a dissociation constant, usually derived from enzyme kinetics or from competition with a known ligand.
